Measurements from ChEMBL document CHEMBL1201862, “PubChem BioAssay data set” (2004).
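Compound exposure: 48 hours, 5 concentrations, 96-well plates. Abbreviation: GI50, concentration required for 50% inhibition of growth.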 Active and inactive are the calls of the source. Cut-off read from the data, not from the text of the source: active = GI50 up to about 1.1 µM and inactive = higher.

Assays:
Assay in all cases: NCI anticancer screen, dose series, 48 h
HCT-15 = tested on: HCT-15
HL-60 = tested on: HL-60
UACC-257 = tested on: UACC-257
MCF7 = tested on: MCF7
UO-31 = tested on: UO-31
OVCAR-4 = tested on: OVCAR-4
M19-MEL = tested on: M19-MEL
U-251 = tested on: U-251
SW-620 = tested on: SW-620
XF498 = tested on: XF498
SNB-19 = tested on: SNB-19
SNB-75 = tested on: SNB-75
SN12C = tested on: SN12C
NCI-H522 = tested on: NCI-H522
HCC 2998 = tested on: HCC 2998
OVCAR-8 = tested on: OVCAR-8
K562 = tested on: K562
SK-MEL-2 = tested on: SK-MEL-2
HOP-62 = tested on: HOP-62
CCRF-CEM = tested on: CCRF-CEM
COLO 205 = tested on: COLO 205
RPMI-8226 = tested on: RPMI-8226
SK-OV-3 = tested on: SK-OV-3
DMS-273 = tested on: DMS-273
SNB-78 = tested on: SNB-78
OVCAR-5 = tested on: OVCAR-5
OVCAR-3 = tested on: OVCAR-3
HT-29 = tested on: HT-29
MOLT-4 = tested on: MOLT-4
KM12 = tested on: KM12
HOP-18 = tested on: HOP-18
SF-295 = tested on: SF-295
UACC-62 = tested on: UACC-62
A498 = tested on: A498
A549 = tested on: A549
NCI-H23 = tested on: NCI-H23
SK-MEL-28 = tested on: SK-MEL-28
DLD-1 = tested on: DLD-1
NCI-H226 = tested on: NCI-H226
Malme-3M = tested on: Malme-3M
NCI-H460 = tested on: NCI-H460
CAKI-1 = tested on: CAKI-1
LOX IMVI = tested on: LOX IMVI
EKVX = tested on: EKVX
SK-MEL-5 = tested on: SK-MEL-5
SF-268 = tested on: SF-268
RXF 393 = tested on: RXF 393
KM-20L2 = tested on: KM-20L2
DMS-114 = tested on: DMS-114
IGROV-1 = tested on: IGROV-1
SF-539 = tested on: SF-539
HOP-92 = tested on: HOP-92
NCI/ADR-RES = tested on: NCI/ADR-RES
HCT-116 = tested on: HCT-116
TK-10 = tested on: TK-10
ACHN = tested on: ACHN
786-0 = tested on: 786-0
LXFL 529 = tested on: LXFL 529

Measured: GI50

COc1cccc(N[C@@H]2c3cc4c(cc3C(c3cc(OC)c(O)c(OC)c3)[C@H]3C(=O)OCC32)OCO4)c1 (some centres not stated)
active: HL-60 0.0499 µM | UACC-257 0.44 µM | MCF7 0.207 µM | UO-31 0.302 µM | M19-MEL 0.624 µM | U-251 0.411 µM | SW-620 0.891 µM | SNB-19 0.328 µM | SNB-75 0.52 µM | SN12C 0.681 µM | K562 0.531 µM | HOP-62 0.191 µM | CCRF-CEM 0.0546 µM | RPMI-8226 0.186 µM | DMS-273 0.148 µM | HT-29 0.973 µM | MOLT-4 < 0.01 µM | SF-295 0.186 µM | UACC-62 0.24 µM | A498 0.293 µM | A549 0.0213 µM | NCI-H23 0.587 µM | NCI-H226 0.249 µM | NCI-H460 < 0.01 µM | CAKI-1 0.197 µM | LOX IMVI 0.558 µM | SK-MEL-5 0.8 µM | SF-268 0.681 µM | RXF 393 1.07 µM | DMS-114 0.578 µM | SF-539 0.369 µM | HOP-92 0.346 µM | NCI/ADR-RES 0.348 µM | HCT-116 0.693 µM
inactive: OVCAR-4 7.55 µM | XF498 1.12 µM | NCI-H522 1.21 µM | HCC 2998 1.36 µM | OVCAR-8 1.22 µM | SK-MEL-2 3.76 µM | COLO 205 2.11 µM | SK-OV-3 1.32 µM | SNB-78 5.36 µM | OVCAR-5 4.46 µM | OVCAR-3 8.53 µM | KM12 1.65 µM | HOP-18 1.52 µM | SK-MEL-28 2.49 µM | DLD-1 1.58 µM | Malme-3M 1.79 µM | EKVX 2.56 µM | KM-20L2 1.46 µM | IGROV-1 2.07 µM
0.552 µM: HCT-15

O=C(COc1ccc(Cl)cc1)N1CCN(C(=O)COc2ccc(Cl)cc2)c2ccccc21
inactive: HL-60 13.4 µM | UACC-257 25.2 µM | UO-31 7.23 µM | M19-MEL 38.1 µM | U-251 74 µM | SW-620 > 100 µM | XF498 24.5 µM | SNB-75 45.6 µM | NCI-H522 22.5 µM | HCC 2998 > 100 µM | OVCAR-8 53.2 µM | K562 37.6 µM | SK-MEL-2 28.1 µM | HOP-62 > 100 µM | CCRF-CEM 34 µM | COLO 205 45.2 µM | RPMI-8226 20.6 µM | SK-OV-3 81.5 µM | TK-10 33.4 µM | DMS-273 39.2 µM | SNB-78 45.4 µM | OVCAR-5 70 µM | OVCAR-3 54.6 µM | HT-29 50.5 µM | MOLT-4 19.2 µM | KM12 57 µM | HOP-18 71.3 µM | SF-295 54.5 µM | A498 74.8 µM | A549 33.5 µM | ACHN 33.6 µM | NCI-H23 > 100 µM | SK-MEL-28 21.2 µM | DLD-1 64 µM | 786-0 64.9 µM | Malme-3M 36.6 µM | NCI-H460 60.7 µM | LOX IMVI 91.2 µM | EKVX 26.3 µM | LXFL 529 37.4 µM | SF-268 41.6 µM | RXF 393 47.6 µM | KM-20L2 > 100 µM | DMS-114 29.5 µM | IGROV-1 50.7 µM | SF-539 > 100 µM | HOP-92 30.3 µM | HCT-116 30.4 µM
